Results from patent publication US20230212180A1, “SUBSTITUTED PYRAZINE COMPOUND, PHARMACEUTICAL COMPOSITION COMPRISING SAME, AND USE THEREOF” (Sichuan Kelun-Biotech Biopharmaceutical Co., Ltd., priority 2020, published 2023).
Read-outs that look alike come from different tables or passages of the source.

Experiments:
CYP3A4 = target: T1, CYP3A4 (Homo sapiens, UniProt P08684); assay: Biochemical assay for CYP enzyme inhibition, P450-Glo CYP3A4 Screening System; format: in vitro ADME
T1 construct: purchased Promega
T1 sequence (P08684 whole entry): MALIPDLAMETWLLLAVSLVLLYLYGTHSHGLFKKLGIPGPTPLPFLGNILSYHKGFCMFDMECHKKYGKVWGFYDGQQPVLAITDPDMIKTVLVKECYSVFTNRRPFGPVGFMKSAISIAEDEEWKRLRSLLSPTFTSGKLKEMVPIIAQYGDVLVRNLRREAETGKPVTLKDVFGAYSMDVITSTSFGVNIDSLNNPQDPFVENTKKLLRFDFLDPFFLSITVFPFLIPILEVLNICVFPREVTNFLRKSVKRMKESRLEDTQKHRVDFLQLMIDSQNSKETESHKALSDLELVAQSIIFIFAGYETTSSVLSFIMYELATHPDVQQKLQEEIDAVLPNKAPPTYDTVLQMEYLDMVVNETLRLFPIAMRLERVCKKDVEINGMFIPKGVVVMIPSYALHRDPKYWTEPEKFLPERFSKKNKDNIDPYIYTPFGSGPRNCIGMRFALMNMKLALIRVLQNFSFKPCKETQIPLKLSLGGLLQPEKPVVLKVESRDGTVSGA
Description: Test Example 5: Biochemical Assay for CYP Enzyme (Cytochrome P450) Inhibition
P450-Glo™ CYP3A4 Screening System, (Promega).
BMG PHERAstar FS Luminescent.
The experiments were carried out separately according to the instructions of the kits. The steps were as follows:
3.3. Inhibition Against CYP3A4:
Test group: The test compounds at different concentrations were added into a microplate, and Luciferin-IPA ([…]), K3PO4 (100 mM), and CYP3A4 (2 nM) were added into each well, and pre-incubated at room temperature for 10 min. Thereafter, an NADPH regeneration system was added. The mixture was reacted at room temperature for 30 min. Finally, an equal volume of detection buffer was added and incubated at room temperature for 20 min, followed by chemiluminescence detection.
Negative control group: The experimental method for the negative control group was the same as that for the test group, except that the test compound was not added.
Blank control group: The experimental method for the blank control group was the same as that for the test group, except that the test compound was not added and that CYP3A4 was replaced with CYP3A4 Membrance (2 nM).
Percentage inhibition=(1−(the chemiluminescent signal value of the test compound group at a certain test concentration−the chemiluminescent signal value of the blank control group)/(the chemiluminescent signal value of the negative control group−the chemiluminescent signal value of the blank control group))×100%.
When the percentage inhibition was between 30% and 80%, a single value or a value range of the half maximal inhibitory concentration (IC50) of the compound against the CYP enzyme was estimated based on the following equation: IC50=X×(1−percentage inhibition)/percentage inhibition, wherein X was the test concentration of the compound.

[1] = target: T2, recombinant full-length human PTPN11 (SHP2) (Homo sapiens, UniProt Q06124); assay: Inhibition of in vitro enzyme activity of SHP2 (DiFMUP fluorescence endpoint assay); format: biochemical; details: SHP2 0.5 nM, DiFMUP 200 μM, IRS-1 0.5 μM; 60 min incubation
T2 construct: recombinant full-length human PTPN11 (SHP2), active (SignalChem); purchased SignalChem
T2 sequence (Q06124 1-593): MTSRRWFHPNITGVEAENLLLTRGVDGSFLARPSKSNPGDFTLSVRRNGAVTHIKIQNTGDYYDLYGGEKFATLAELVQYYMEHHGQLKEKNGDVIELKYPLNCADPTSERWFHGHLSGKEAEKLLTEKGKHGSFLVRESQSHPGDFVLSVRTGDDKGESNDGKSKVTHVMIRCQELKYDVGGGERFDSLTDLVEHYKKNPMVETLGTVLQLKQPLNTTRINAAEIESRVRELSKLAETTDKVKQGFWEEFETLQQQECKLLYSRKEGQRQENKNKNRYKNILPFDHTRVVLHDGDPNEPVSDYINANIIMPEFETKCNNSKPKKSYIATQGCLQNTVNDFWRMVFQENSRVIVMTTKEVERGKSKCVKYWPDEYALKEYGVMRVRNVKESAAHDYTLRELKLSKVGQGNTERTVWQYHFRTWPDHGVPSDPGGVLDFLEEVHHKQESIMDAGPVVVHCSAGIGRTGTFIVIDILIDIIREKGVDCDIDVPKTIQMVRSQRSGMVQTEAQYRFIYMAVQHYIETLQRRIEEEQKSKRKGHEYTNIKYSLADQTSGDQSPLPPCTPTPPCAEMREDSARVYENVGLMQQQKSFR
Description: Test Example 1: Experiment on the Inhibition of In Vitro Enzyme Activity of SHP2 (Protein Phosphatase)
phosphatase: recombinant full-length human PTPN11 (SHP2), active (SignalChem);
substrate: 6,8-difluoro-4-methylumbelliferyl phosphate (DiFMUP) (Invitrogen);
activating peptide: IRS1_pY1172(dPEG8)pY1222 (IRS1) (BPS Bioscience);
terminator: bpv(phen) (bpv) (Abcam).
SHP2 concentration: 0.5 nM;
DiFMUP concentration: 200 μM;
IRS-1 concentration: 0.5 μM;
bpv concentration: 160 μM;
buffer systems: 60 mM Hepes pH 7.2; 75 mM NaCl; 75 mM KCl; 0.05% surfactant P20; 1 mM EDTA; 5 mM DTT;
incubation duration of compound and enzyme: 60 minutes;
reaction time of enzyme and substrate: 30 minutes;
parameters for microplate reader: BMG PHERAstar fluorescence microplate reader at an excitation wavelength of 340 nm and an emission wavelength of 450 nm.
Test group: A mixture of the test compound and the phosphatase SHP2 together with the activating peptide IRS-1 were incubated in the buffer system at room temperature for 60 minutes. The substrate DiFMUP was added to initiate the reaction and incubated at room temperature for 30 minutes. Thereafter, bpv was added to terminate the reaction. The reaction plate was placed in the microplate reader, and the fluorescence intensities of the wells in the plate were measured using an endpoint assay.
Negative group: The experimental method for the negative group was the same as that for the test group, except that the test compound was substituted with 0.05% aqueous solution of DMSO.
Blank group: The experimental method for the blank group was the same as that for the test group, except that the test compound was substituted with 0.05% aqueous solution of DMSO and that SHP2 was not added.
The relative inhibitory activity was calculated for the test group at each concentration based on the following equation: inhibition rate (%)=100%−(the fluorescence intensity of the test group−the fluorescence intensity of the blank group)/(the fluorescence intensity of the negative group−the fluorescence intensity of the blank group)×100%. The half maximal inhibitory concentration (IC50) of the compound was calculated by fitting the curve according to the four-parameter logistic model.

hERG = target: T3, hERG (Homo sapiens, UniProt Q12809); assay: Biochemical assay for hERG inhibition (Predictor hERG Fluorescence Polarization Assay Kit); format: binding
T3 construct: purchased ThermoFisher
T3 sequence (Q12809 whole entry): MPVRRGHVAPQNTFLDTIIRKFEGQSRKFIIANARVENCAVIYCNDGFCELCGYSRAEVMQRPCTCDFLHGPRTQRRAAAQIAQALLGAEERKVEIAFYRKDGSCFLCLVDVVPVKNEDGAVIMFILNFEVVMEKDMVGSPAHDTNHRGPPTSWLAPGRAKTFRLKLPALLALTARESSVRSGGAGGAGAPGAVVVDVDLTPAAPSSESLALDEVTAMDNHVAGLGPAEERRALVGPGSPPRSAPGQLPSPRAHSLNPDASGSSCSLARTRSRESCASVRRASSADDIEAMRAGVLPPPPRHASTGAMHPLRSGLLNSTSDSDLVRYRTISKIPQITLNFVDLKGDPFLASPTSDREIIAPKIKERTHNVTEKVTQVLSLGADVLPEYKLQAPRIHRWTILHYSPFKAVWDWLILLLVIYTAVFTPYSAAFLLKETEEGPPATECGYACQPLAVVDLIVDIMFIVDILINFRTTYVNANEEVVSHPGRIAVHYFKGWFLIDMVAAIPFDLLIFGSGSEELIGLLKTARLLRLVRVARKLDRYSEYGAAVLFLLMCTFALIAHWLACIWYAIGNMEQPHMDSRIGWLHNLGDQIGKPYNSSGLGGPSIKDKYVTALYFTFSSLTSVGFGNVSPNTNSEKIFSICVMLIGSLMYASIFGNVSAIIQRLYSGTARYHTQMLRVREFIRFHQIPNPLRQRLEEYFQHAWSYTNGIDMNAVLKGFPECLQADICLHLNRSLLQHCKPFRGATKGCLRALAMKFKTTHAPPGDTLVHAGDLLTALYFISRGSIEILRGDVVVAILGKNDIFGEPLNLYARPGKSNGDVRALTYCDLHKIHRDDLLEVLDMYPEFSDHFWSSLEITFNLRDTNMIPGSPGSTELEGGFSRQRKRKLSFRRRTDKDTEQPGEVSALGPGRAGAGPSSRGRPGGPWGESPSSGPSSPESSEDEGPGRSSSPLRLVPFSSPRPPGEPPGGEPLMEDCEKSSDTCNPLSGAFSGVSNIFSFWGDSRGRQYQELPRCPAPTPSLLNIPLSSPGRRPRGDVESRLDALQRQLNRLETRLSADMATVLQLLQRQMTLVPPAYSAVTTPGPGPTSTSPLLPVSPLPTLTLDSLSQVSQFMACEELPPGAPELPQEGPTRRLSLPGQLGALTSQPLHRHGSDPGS
Description: Test Example 3: Biochemical Assay for hERG Inhibition
kit: Predictor™ hERG Fluorescence Polarization Assay Kit (ThermoFisher) containing:
Compound E4031 as a positive control;
tracer concentration: 1 nM;
incubation duration: 2 hours;
parameters for microplate reader: BMG PHERAstar FS fluorescence microplate reader.
Test group: The test compounds at different concentrations were added into a microplate containing hERG cell membrane, and the tracer with a high affinity for hERG was then added into each well. The microplate was incubated at 25° C. for 2 hours before detection of the change in fluorescence polarization value (mP) (excitation wavelength: 540 nm; emission wavelength: 590 nm) using a multi-mode microplate reader.
Positive control group: The experimental method for the positive control group was the same as that for the test group, except that the test compound was replaced with 30 μM Compound E4031.
Blank control group: The experimental method for the blank control group was the same as that for the test group, except that the test compound was replaced with the hERG buffer and that the hERG cell membrane was not added.
Based on the data ratios, the percentage inhibition (%) of the compounds of the present disclosure against hERG at different concentrations was calculated and the range of the half maximal inhibitory concentration (IC50) of the compounds was determined. Percentage inhibition (%)=(1−(mP of the test compound−mP of the positive control group)/(mP of the blank control group−mP of the positive control group))×100%.

[2] = estimated from percentage inhibition, read-out: IC50 (μM) CYP3A4

Row | Compound | IC50 (CYP3A4) [µM] | IC50 [1] [nM] | IC50 (hERG) [nM] | IC50 (CYP3A4; [2]) [µM]
1 | Cc1nc(N2CCC3(CC2)CO[C@@H](C)[C@H]3N)c(CO)nc1Sc1ccnc(N2CCCC2CO)c1Cl (stereo partly shown) [Example 1] | > 10 | 6.03 | – | –
2 | C[C@@H]1OCC2(CCN(c3ncc(Sc4ccnc(N5CCCC5CO)c4Cl)nc3CO)CC2)[C@@H]1N (stereo partly shown) [Example 2] | – | 1.82 | > 10000 | > 10
3 | C[C@@H]1OCC2(CCN(c3ncc(Sc4ccnc(N5CC(CC#N)C5)c4Cl)nc3CO)CC2)[C@@H]1N [Example 5, 2-(1-(4-(5-((3S,4S)-4-amino-3-methyl-2-oxa-8-azaspiro[4.5]decan-8-yl)-6-(hydroxymethyl)pyrazin-2-ylthio)-3-chloropyridin-2-yl)azetidin-3-yl)acetonitrile] | > 10 | 1.22 | – | –
4 | C[C@@H]1OCC2(CCN(c3ncc(Sc4ccnc(N5CC(CO)C5)c4Cl)nc3CO)CC2)[C@@H]1N [Example 6, (3-((3S,4S)-4-amino-3-methyl-2-oxa-8-azaspiro[4.5]decan-8-yl)-6-(3-chloro-2-(3-(hydroxymethyl)azetidin-1-yl)pyridin-4-ylthio)pyrazin-2-yl)methanol] | > 10 | 1.76 | – | –
5 | C[C@@H]1OCC2(CCN(c3ncc(Sc4ccnc(N5CC(C(C)(C)O)C5)c4Cl)nc3CO)CC2)[C@@H]1N [Example 12, 2-(1-(4-(5-((3S,4S)-4-amino-3-methyl-2-oxa-8-azaspiro[4.5]decan-8-yl)-6-(hydroxymethyl)pyrazin-2-ylthio)-3-chloropyridin-2-yl)azetidin-3-yl)propan-2-ol] | > 10 | 2.5 | > 10000 | –
6 | CC(C)(O)C1CN(c2nccc(Sc3cnc(N4CCC5(CC4)COC[C@H]5N)c(CO)n3)c2Cl)C1 [Example 13, (S)-2-(1-(4-(5-(4-amino-2-oxa-8-azaspiro[4.5]decan-8-yl)-6-(hydroxymethyl)pyrazin-2-ylthio)-3-chloropyridin-2-yl)azetidin-3-yl)propan-2-ol] | – | 4.9 | > 10000 | > 10
7 | C[C@@H]1OCC2(CCN(c3ncc(Sc4ccnc(NCC5(O)CC5)c4Cl)nc3CO)CC2)[C@@H]1N [Example 15, 1-((4-(5-((3S,4S)-4-amino-3-methyl-2-oxa-8-azaspiro[4.5]decan-8-yl)-6-(hydroxymethyl)pyrazin-2-ylthio)-3-chloropyridin-2-ylamino)methyl)cyclopropan-1-ol] | > 10 | 2.4 | > 10000 | –
8 | CC(O)C1CN(c2nccc(Sc3cnc(N4CCC5(CC4)CO[C@@H](C)[C@H]5N)c(CO)n3)c2Cl)C1 (stereo partly drawn) [Example 17, 1-(1-(4-(5-((3S,4S)-4-amino-3-methyl-2-oxa-8-azaspiro[4.5]decan-8-yl)-6-(hydroxymethyl)pyrazin-2-ylthio)-3-chloropyridin-2-yl)azetidin-3-yl)ethan-1-ol] | > 10 | 2.5 | – | –
9 | C[C@@H]1OCC2(CCN(c3ncc(Sc4ccnc(N5CCCC5CC(N)=O)c4Cl)nc3CO)CC2)[C@@H]1N (stereo partly drawn) [Example 19, 2-(1-(4-(5-((3S,4S)-4-amino-3-methyl-2-oxa-8-azaspiro[4.5]decan-8-yl)-6-(hydroxymethyl)pyrazin-2-ylthio)-3-chloropyridin-2-yl)pyrrolidin-2-yl)acetamide] | – | 1.5 | > 10000 | > 10
10 | COCC1CN(c2nccc(Sc3cnc(N4CCC5(CC4)CO[C@@H](C)[C@H]5N)c(CO)n3)c2Cl)C1 [Example 21, (3-((3S,4S)-4-amino-3-methyl-2-oxa-8-azaspiro[4.5]decan-8-yl)-6-(3-chloro-2-(3-(methoxymethyl)azetidin-1-yl)pyridin-4-ylthio)pyrazin-2-yl)methanol] | > 10 | 1.15 | – | –
11 | CC(C)(O)C1CN(c2nccc(Sc3cnc(N4CCC5(CC4)Oc4ccccc4[C@H]5N)c(CO)n3)c2Cl)C1 [Example 22, (R)-2-(1-(4-(5-(3-amino-3H-spiro[benzofuran-2,4′-piperidin]-1′-yl)-6-(hydroxymethyl)pyrazin-2-ylthio)-3-chloropyridin-2-yl)azetidin-3-yl)propan-2-ol] | – | 4.3 | – | > 10
12 | CC(C)(O)C1CN(c2nccc(Sc3cnc(N4CCC5(CC4)Cc4ccccc4[C@H]5N)c(CO)n3)c2Cl)C1 [Example 23, (S)-2-(1-(4-(5-(1-amino-1,3-dihydrospiro[indene-2,4′-piperidin]-1′-yl)-6-(hydroxymethyl)pyrazin-2-ylthio)-3-chloropyridin-2-yl)azetidin-3-yl)propan-2-ol] | – | 1.9 | – | > 10
13 | Cc1nc(N2CCC3(CC2)CO[C@@H](C)[C@H]3N)c(CO)nc1Sc1ccnc(N2CC(CS(C)(=O)=O)C2)c1Cl [Example 25, (3-((3S,4S)-4-amino-3-methyl-2-oxa-8-azaspiro[4.5]decan-8-yl)-6-(3-chloro-2-(3-(methylsulfonylmethyl)azetidin-1-yl)pyridin-4-ylthio)-5-methylpyrazin-2-yl)methanol] | > 10 | 7 | > 10000 | –
14 | CC(C)(O)C1CN(c2nccc(Sc3cnc(N4CCC5(CC4)Cc4ncccc4[C@H]5N)c(CO)n3)c2Cl)C1 [Example 43, (S)-2-(1-(4-(5-(5-amino-5,7-dihydrospiro[cyclopenta[b]pyridine-6,4′-piperidin]-1′-yl)-6-(hydroxymethyl)pyrazin-2-ylthio)-3-chloropyridin-2-yl)azetidin-3-yl)propan-2-ol] | – | 2.6 | – | > 10
